The record followed here is patent US4732901A, “Certain pyridyl, thienyl or furyl propenoic acids or esters having anti-inflammatory anti-allergic properties” (Beecham Group p.l.c., priority 1985, dated 1988).

Assay [1] addresses T1, 5-Lipoxygenase enzyme (10,000 g supernatant from RBL-1 cells) (Rattus norvegicus, UniProt P12527).
T1 construct: prepared as a 10,000 g supernatant from RBL-1 cells; endogenous in cells; host or cells: RBL-1 cells (10,000 g supernatant)
T1 sequence (P12527 1-673): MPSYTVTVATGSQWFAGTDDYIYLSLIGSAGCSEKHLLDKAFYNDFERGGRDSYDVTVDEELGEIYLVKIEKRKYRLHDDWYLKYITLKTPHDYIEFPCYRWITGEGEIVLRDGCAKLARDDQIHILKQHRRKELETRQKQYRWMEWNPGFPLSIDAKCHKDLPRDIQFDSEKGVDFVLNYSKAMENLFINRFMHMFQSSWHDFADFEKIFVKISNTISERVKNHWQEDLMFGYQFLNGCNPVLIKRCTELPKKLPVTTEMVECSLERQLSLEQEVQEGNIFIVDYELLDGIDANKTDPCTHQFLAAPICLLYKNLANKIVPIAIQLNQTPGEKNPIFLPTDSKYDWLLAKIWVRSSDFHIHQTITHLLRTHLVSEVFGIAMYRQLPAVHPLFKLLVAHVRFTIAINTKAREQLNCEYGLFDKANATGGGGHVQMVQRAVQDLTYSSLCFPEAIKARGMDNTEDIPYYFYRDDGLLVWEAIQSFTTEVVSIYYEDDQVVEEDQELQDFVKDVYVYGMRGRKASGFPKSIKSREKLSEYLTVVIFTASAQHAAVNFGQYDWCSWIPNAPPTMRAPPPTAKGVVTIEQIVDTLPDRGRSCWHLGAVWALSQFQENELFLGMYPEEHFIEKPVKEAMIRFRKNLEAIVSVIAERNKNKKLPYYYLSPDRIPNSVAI
Put plainly: RBL-1 5-Lipoxygenase Screen. In kind it is biochemical. The following applies: decrease in 5-HETE + 5,12-diHETE formation relative to control, read-out: Per cent inhibition of 5-lipoxygenase at × μM concentration; for inhibition at 20 µM: at 20 μM compound. As for the experimental part:
(1) RBL-1 5-Lipoxygenase Screen
5-Lipoxygenase enzyme was prepared as a 10,000 g supernatant from RBL-1 cells by the method of Jakschik (Jakschik, B. A., F. F. Sun, L. M. Lee, and M. M. Steinhoff, 1980, Biochem. Biophys. Res. Comm. 95, 103). The 10,000 g supernatant was diluted with homogenization buffer to the equivalent of 1.5-2.5×10^7 cells. ml.^-1 and made 2 mM with respect to CaCl2. Aliquots of 0.5 ml were then dispensed into tubes, and incubated at 29° C. with 5 ul ethanol or compound in ethanol at the desired concentration for 2 min. Then [1-^14 C] arachidonic acid was added in buffer to give a final concentration of 6.3 uM and 0.2 uCi per incubation, and the reaction continued at 29° C. for 2 min. The reaction was terminated by adding 1 ml of acetone and cooling on ice, 0.5 ml of ice-cold saline and 100 ul of 2N formic acid were added, and the mixture was extracted with 2×2 ml of chloroform. The extract was stored under N2 at -20° C. until analysis by chromatography. Activity was measured as the percentage of total radioactivity found in 5-HETE and 5,12-diHETE, and inhibition calculated as the decrease in formation of the sum of these two species in compound-treated incubates relative to control incubations.

Assay [2] has as its system cyclo-oxygenase (bovine seminal vesicle microsomes). Put plainly: Cyclo-oxygenase Screen. The class given is biochemical. The following applies: at 50 μM compound; decrease in prostaglandin formation. As for the experimental part: (2) Cyclo-oxygenase Screen
Compounds were preincubated with the incubation constitutents for 5 min at 37° C. before the reaction was started by the addition of the arachidonic acid. The reaction was continued at 37° C. for 2 min, then stopped by placing the incubations on ice and the addition of 1.2 ml 0.2M citric acid. Unmetabolised substrate and prostaglandin products were extracted in ethyl acetate (2×4 ml), the combined extracts washed with 0.8 ml water, and separated by thin-layer chromatography (Kieselgel GF254 plates in ethyl acetate:acetone:glacial acetic acid, 90:10:1, v/v). Recovery was 65-80%. The regions on the thin-layer chromatography plate that chromatographed with authentic arachidonic acid or prostaglandins E2 and F2 α (Rf 's 0.70, 0.28 and 0.16 respectively) were scraped and the radioactivity in each determined by liquid scintillation counting with a correction for quenching being made by the external standard-channels ratio method. Inhibition of cyclo-oxygenase activity was calculated from the decrease in prostaglandin formation. Each compound concentration was tested in triplicate and the 50% inhibitory concentration, if determined, was calculated by linear regression from the inhibitory data at, at least three different compound concentrations.

Each structure is given as a SMILES string.

`CCCCCCCCCCCC#Cc1cnccc1/C=C/C(=O)O` [Example 2, 3-[3-(1-Tridecynyl)-4-pyridyl)prop-2-enoic acid]: in assay [1], the inhibition at 20 µM turned out to be 30%. With `CCCCCCCCCCCC#Cc1cnccc1C=C(C(=O)O)C(=O)O` [Example 4, 2-[3-(1-Tridecynyl)-4-pyridyl]methylenepropane-1,3-dioic acid], in assay [1], the inhibition at 20 µM amounted to 72%. For the same compound, the “Per cent inhibition of cyclo-oxygenase at 50 μM concentration” value in assay [2] was found to be 15%. For `CCCCCCCCCCCC#Cc1ccoc1/C=C/C(=O)O` [Example 7, 3-[3-(1-Tridecynyl)-2-furanyl]prop-2-enoic acid], the inhibition at 5 µM in assay [1] (at 5 μM compound) was found to be 38%. For the same compound, the “Per cent inhibition of cyclo-oxygenase at 50 μM concentration” value in assay [2] is 46%.
